Assays:
[1] = molecular target: adenosine A2A receptor (Rattus norvegicus, UniProt P30543); assay: biochemical; conditions: [3H]ZM241385, rat striatal membranes; 10 μM; n=2, mean value
Description: (§1) Incubations were carried out for 1 hr at 37° C. and were terminated by rapid filtration over Whatman GF/B filters, using a Brandell cell harvester (Brandell, Gaithersburg, Md.). Tubes were washed three times with 3 ml of buffer. Radioactivity was determined in a Beckman 5500B γ-counter. Nonspecific binding was determined in the presence of 10^−5 M R-PIA.
(§2) All compounds prepared were tested in radioligand binding assays to determine their affinities for the adenosine A1 receptor in rat brain cortex, the A2A receptor in rat striatum and the human A3 receptor as expressed in HEK 293 cells (Table 2, hereinafter). The Ki values were computed from the displacement curves obtained by nonlinear regression of the competition curves with the software package Prism (Graph Pad, San Diego, Calif.)
(§3) For the adenosine A1 receptor, the tritiated antagonist, [^3H]-1,3-dipropyl-8-cyclopentylxanthine ([^3H]DPCPX), and for the adenosine A2A receptor, the tritiated antagonist [^3H]ZM 241385 were used. Since radiolabeled antagonists are not commercially available for the adenosine A3 receptor, [125I]AB-MECA, an A3 receptor agonist, was used. Displacement experiments were performed in the absence of GTP.

[2] = molecular target: T1, adenosine A1 receptor (Rattus norvegicus, UniProt P25099); assay: biochemical
T1 sequence (P25099 1-326): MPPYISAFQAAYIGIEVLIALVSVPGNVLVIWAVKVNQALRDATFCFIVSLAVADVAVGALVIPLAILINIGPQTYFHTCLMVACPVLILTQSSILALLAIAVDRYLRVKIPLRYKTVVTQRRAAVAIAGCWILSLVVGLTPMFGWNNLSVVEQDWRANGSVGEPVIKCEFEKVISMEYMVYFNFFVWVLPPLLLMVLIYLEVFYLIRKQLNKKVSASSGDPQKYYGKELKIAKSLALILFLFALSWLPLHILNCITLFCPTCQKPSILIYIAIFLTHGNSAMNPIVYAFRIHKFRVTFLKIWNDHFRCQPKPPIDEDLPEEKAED
Description: as §1, §2, §3

[3] = molecular target: human adenosine A2A receptors (Homo sapiens, UniProt P29274)
Description: CHO cells expressing the human adenosine A2A receptors were grown overnight as a monolayer in 24 wells tissue culture plates (400 μl/well; 2×10^5 cells/well). cAMP generation was performed in Dulbecco's Modified Eagles Medium (DMEM)/N-2-hydroxyethylpiperazin-N′-2-ethansulfonic acid HEPES) buffer (0.60 g HEPES/50 ml DMEM pH 7.4). To each well, washed three times with DMEM/HEPES buffer (250 μl), 100 μl DMEM/HEPES buffer, 100 μl adenosine deaminase (final concentration 5 IU/ml) and 100 μl of a mixture of rolipram and cilostamide (final concentration 50 μM each) were added. After incubation for 40 minutes at 37° C., 100 μL agonist was added. After 15 minutes at 37° C., the reaction was terminated by removing the medium and adding 200 μl 0.1 M HCl. Wells were stored at −20° C. until assay.
The amounts of cAMP were determined after a protocol with cAMP binding protein^12 with the following minor modifications. As a buffer was used 150 mM K2HPO4/10 mM EDTA/0.2% Bovine Serum Albumine (BSA) at pH 7.5. Samples (20 μl+30 μl 0.1 M HCl) were incubated for at least 2.5 hours at 0° C. before filtration over Whatman GF/B filters. […] Filters were counted in Packard Emulsifier Safe scintillation fluid (3.5 ml) after 24 hours of extraction.
All compounds prepared were also tested in a functional assay.

[4] = molecular target: T2, human A3 receptor (Homo sapiens, UniProt P0DMS8); assay: Radioligand binding, displacement of [125I]AB-MECA from human A3 receptor expressed in HEK 293 cells; conditions: [125I]AB-MECA, human A3 receptor in HEK 293 cells; 10 μM; n=2, mean value
T2 construct: expressed in transfected cells; host or cells: HEK 293
T2 sequence (P0DMS8 1-318): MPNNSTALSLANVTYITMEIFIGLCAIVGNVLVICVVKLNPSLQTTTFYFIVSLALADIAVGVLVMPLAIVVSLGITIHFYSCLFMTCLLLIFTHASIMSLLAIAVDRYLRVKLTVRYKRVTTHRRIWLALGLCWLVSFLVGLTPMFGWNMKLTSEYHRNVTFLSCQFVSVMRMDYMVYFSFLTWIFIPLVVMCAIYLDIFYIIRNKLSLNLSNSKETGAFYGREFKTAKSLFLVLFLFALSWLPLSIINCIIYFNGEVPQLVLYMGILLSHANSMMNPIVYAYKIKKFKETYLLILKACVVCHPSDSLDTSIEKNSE
Description: as §1, §2, §3

CCCC/C=C/c1nc(N)c2nc(NCc3ccccc3)n([C@@H]3O[C@H](CO)[C@@H](O)[C@H]3O)c2n1 [Compound 21, 2-((E)-1-hexenyl)-8-benzylaminoadenosine]
% displacement at 10^-5 M, A2A [1]: 26.3% | Ki [2]: 2.11 ± 0.56 µM | % cAMP production hA2A [3]: 73% (72–75) | % displacement at 10^-5 M, A3 [4]: 24.3% | melting point: 153 to 155 °C
